Laboratory results as given in paper PMC10037499, “High-Throughput Screen Reveals the Structure–Activity Relationship of the Antimicrobial Lasso Peptide Ubonodin” (ACS Central Science, 2023).
Where a SMILES comes first, the peptide text is derived from it.

How the values were obtained:
[1] = tested on: RNA polymerase (RNAP) in E. coli MC1061; experiment: High-throughput growth-based screen with NGS (enrichment value) for RNA polymerase inhibition; type: cell-based; set-up: key to Experimental observation (enrichment observed in the screen): Dropout: Many variants inhibit RNAP so strongly that they cannot be detected by NGS after IPTG induction (referred to as dropout variants); details: Table S4; variants whose MICs were tested
Description: The single mutant library was analyzed by NGS at multiple stages of sample preparation (Figure 2A) to track its evolution throughout the screen. Specifically, the frequency of each possible aa variant was computed at each stage by summing up counts for each distinct translated sequence and dividing by the total number of counts for all variants (eq S1, SI Methods). Since cells expressing an RNAP-inhibiting ubonodin variant will have growth defects relative to cells with a nontoxic variant, RNAP-inhibiting ubonodin variants are expected to decrease in frequency throughout the screen.
First, the naïve library (digested PCR products) was sequenced. These digested PCR products were cloned into the pUboABC backbone and transformed into a recA^– cloning strain. This plasmid library was sequenced again to capture any changes upon transformation of the library into E. coli. The change between the naïve library and the cloning transformation library was minimal (Figure S6A). This plasmid library was transformed into the screening strain MC1061, and the plasmid from resulting colonies was also sequenced. The library in MC1061 was grown up en masse in liquid culture to mid log phase, and a portion of the culture was plated. These colonies were scraped, then the plasmid was isolated and sequenced. Finally, the liquid culture was induced with IPTG, after which a portion of the culture was plated and the plasmid was isolated and sequenced. It is key to note that all samples from liquid cultures were plated prior to sequencing to ensure that only viable cells were sequenced. […] The rationale for sequencing at these five different stages was the possibility that leaky expression of uboA would affect the frequency of active mutants prior to IPTG induction. Indeed, we observed that the frequency of some uboA mutants dropped as soon as they were transformed into the screening strain MC1061 while the frequency of other mutants climbed (Figure 2B).
The behavior of the point variants (i.e., variants with a single aa substitution) was examined by calculating their enrichment values, the base-2 logarithm of the ratio of the variant’s frequency at a specific step of the screen to the variant’s frequency in the cloning transformation library (eq S3, Figure S6). The most relevant enrichment value for ubonodin activity is the comparison between the post-IPTG library and the cloning transformation library (Figure 2A). […] Many variants inhibit RNAP so strongly that they cannot be detected by NGS after IPTG induction (referred to as dropout variants). […] Variants with a stop codon mutation and variants containing an aa substitution at Tyr9 or Tyr27 (positions conserved in MccJ25 and shown to be crucial for RNAP inhibition, see Figure S7)[26] have positive enrichment values (1.2–1.7), serving as quality control for the screen (Figure 3A). Strikingly, 63% of point variants decreased in frequency, indicating a high tolerance to aa substitution. […] The positions with active variants are Asn11 through Ser24 in the loop and Asp3, Ser5, and Ala7 in the ring.
The single mutant and double mutant libraries were transformed into E. coli MC1061. Colonies were resuspended in media and subcultured into a larger culture. Aliquots of the cultures were sampled prior to and after induction with 10 μM IPTG and 100 μM IPTG and plated. After 16 h of incubation, the colonies were resuspended in media and plasmids were miniprepped.
Samples were PCR amplified with barcoded primers and combined such that double mutant library samples were over-represented compared to single mutant library samples to provide sufficient coverage of the larger double mutant library. Samples were sequenced using an Illumina MiSeq Micro 300nt and an Illumina NovaSeq 6000 Sequencing System. Downstream analysis of the data was conducted with Python, MATLAB, and R.
V to reduce genomic DNA contamination. One fragment was amplified with Xho I For Lib and a […]

B. cenocepacia AU0756 = tested on: B. cenocepacia AU0756
Description: We proceeded to test the antimicrobial activity of the selected variants against two clinical isolates of the Bcc, B. cenocepacia AU0756 and B. cenocepacia AU24362, in broth microdilution assays. […] We revisited these measurements using broth microdilution assays following the Clinical & Laboratory Standards Institute (CLSI) standard.
Broth microdilution assays of the ubonodin variants were conducted using B. cenocepacia AU0756 and B. cenocepacia AU24362 with guidelines provided by the Clinical & Laboratory Standards Institute (CLSI).

E. coli MC1061 = experiment: Spot dilution assay of E. coli producing the ubonodin variant from pUboABC; type: cell-based; details: variant in pUboABC backbone in E. coli MC1061, induction with 100 μM IPTG, ten-fold serial dilutions, biological duplicates
Description: Cultures of E. coli MC1061 transformed with the appropriate plasmids were grown. Aliquots of the cultures were sampled prior to and after induction with 100 μM IPTG, and 10-fold serial dilutions were plated. […]
All cloning was conducted by PCR amplification (using Q5 polymerase), restriction digestion, ligation, (using T4 DNA ligase), and transformation into chemically competent E. coli XL1-Blue. All cloning with a pUboABC backbone was done by plating transformation mixt ures onto Lysogeny Broth (LB) plates supplemented with 100 μg/mL ampicillin and 0.2% w/v glucose, and colonies were inoculated into LB media supplemented with 100 μ g/mL ampicillin and 0.2% w/v glucose to suppress any leaky expression. Cloning for all other plasmid constructs was done by plating transformation mixtures onto Lysogeny Broth (LB) plates supplemented with 100 μ g/ m L ampicillin, and colonies were inoculated into LB media supplemented with 100 μ g/ m L ampicillin.
Plasmids were extracted using Qiagen QIAprep Spin Miniprep Kit and sequence verified using Sanger sequencing. All primer sequences are listed in Table S7, and all plasmid constructs are […]
pUboABC was cloned by amplifying pWC99 with pQE-80 NheI For and pAT8 Nco I Rev.
The amplicon was ligated into pWC99 digested with Nhe I and Nco I. pUboBC was cloned by digesting pUboABC with Nh e I and Nco I and ligating that fragment into pQE-80 digested with Nhe I and Nco I. pUboABC S5H I16P and pUboABCD S5H I16P were cloned with overlap PCR using pWC99 as the template. One fragment was amplified with pQE-80 EcoRI For and S5H I16P Rev v2 and the second fragment was amplified with S5H I16P For v2 and pQE-80 HindII I Rev. […]
All remaining plasmid constructs were cloned with overlap PCR. One fragment was amplified with Xho I For Lib and a mutagenic reverse primer and the second fragment was amplified with NheI Rev Lib and a mutagenic forward primer. The templates and mutagenic […]
The fragments were joined with a second round of PCR and amplified with XhoI For Lib and NheI Rev Lib. Amplicons were ligated into the appropriate plasmid backbone digested with Xho I and Nhe I-HF. The plasmid backbones […]
The appropriate plasmid was transformed into electrocompetent E. coli MC1061, plated onto LB plates supplemented with 100 μ g/ m L ampicillin and 0.2% w/v glucose, and incubated at 30 °C for 16 hours. Colonies were inoculated into LB media supplemented with 100 μ g/ m L ampicillin and 0.2% w/v glucose and grown at 37 °C for 16 hours. These cultures were sub-cultured to an OD600 of 0.02 in 50 mL of LB media supplemented with 100 μg/mL ampicillin in a 250 mL flask. Once the OD600 reached 0.3, a 1 mL aliquot was sampled immediately prior to inducing the cultures with 100 μM isopropyl β-D-1-thiogalactopyranoside (IPTG). The aliquot was washed with Phosphate-Buffered Saline (PBS) two times and ten-fold serial dilutions were spotted onto LB plates supplemented with 100 μ g/ m L ampicillin and 0.2% w/v glucose. For each following timepoint, a 1 mL sample of each culture was withdrawn, washed with PBS two times, and ten- […]
fold serial dilutions were spotted onto LB plates supplemented with 100 μ g/m L ampicillin and 0.2% w/v glucose. Plates were incubated for 16 hours at 37 °C before imaging. […]
250 mL flask. Ten-fold serial dilutions of the culture were plated onto LB plates supplemented with 100 μ g/ m L ampicillin and 0.2% w/v glucose. The cultures were then grown at 37 °C, and once the OD600 reached 0.3, a 1 mL sample of the culture was withdrawn immediately before the cultures were induced with 10 μM or 100 μM IPTG and returned to grow longer. […]
All plates were incubated at 37 °C for 16 hours, after which the number of colonies was counted. Three biological replicates of this assay were done.
Co-Culture of E. coli MC1061 pUboABC and E. coli MC1061 pUboBC pUboABC (0.9 ng) and pUboBC (0.1 ng) were transformed into electrocompetent E. coli MC1061 with a one- hour outgrowth at 37 °C in LB media supplemented with 0.2% w/v glucose. […]

CC[C@H](C)[C@@H]1NC(=O)[C@H](CO)NC(=O)CNC(=O)[C@H](CC(=O)O)NC(=O)CNC(=O)CNC(=O)CC[C@@H](C(=O)N[C@@H](Cc2ccc(O)cc2)C(=O)N[C@@H](Cc2ccccc2)C(=O)N[C@@H](CC(N)=O)C(=O)N[C@@H](CCCNC(=N)N)C(=O)N2CCC[C@H]2C(=O)N[C@@H](CC(N)=O)C(=O)N[C@@H](Cc2c[nH]cn2)C(=O)N[C@H](C(=O)N[C@@H](Cc2c[nH]cn2)C(=O)N[C@@H](CC(=O)O)C(=O)N[C@@H](Cc2c[nH]c3ccccc23)C(=O)N[C@@H](CCC(N)=O)C(=O)N[C@H](C(=O)N[C@@H](CCSC)C(=O)N[C@@H](CC(=O)O)C(=O)N[C@@H](CO)C(=O)NCC(=O)N[C@@H](Cc2ccc(O)cc2)C(=O)N[C@@H](Cc2ccc(O)cc2)C(=O)NCC(=O)O)[C@@H](C)CC)[C@@H](C)CC)NC(=O)[C@H](C)NC1=O [M14N] (HELM PEPTIDE1{G.G.D.G.S.I.A.E.Y.F.N.R.P.N.H.I.H.D.W.Q.I.M.D.S.G.Y.Y.G}$PEPTIDE1,PEPTIDE1,1:R1-8:R3$$$V2.0)
Experimental observation (enrichment observed in the screen) [1]: -4.7
B. cenocepacia AU0756 MIC (B. cenocepacia AU0756): 0.5 to 2 µM
Inhibits Growth (E. coli MC1061): Yes

CC[C@H](C)[C@@H]1NC(=O)[C@H](CO)NC(=O)CNC(=O)[C@H](CC(=O)O)NC(=O)CNC(=O)CNC(=O)CC[C@@H](C(=O)N[C@@H](Cc2ccc(O)cc2)C(=O)N[C@@H](Cc2ccccc2)C(=O)N[C@@H](CC(N)=O)C(=O)N[C@@H](Cc2ccccc2)C(=O)N2CCC[C@H]2C(=O)N[C@@H](CCSC)C(=O)N[C@@H](Cc2c[nH]cn2)C(=O)N[C@H](C(=O)N[C@@H](Cc2c[nH]cn2)C(=O)N[C@@H](CC(=O)O)C(=O)NCC(=O)N[C@@H](CCC(N)=O)C(=O)N[C@H](C(=O)N[C@@H](CCSC)C(=O)N[C@@H](CC(=O)O)C(=O)N[C@@H](CO)C(=O)NCC(=O)N[C@@H](Cc2ccc(O)cc2)C(=O)N[C@@H](Cc2ccc(O)cc2)C(=O)NCC(=O)O)[C@@H](C)CC)[C@@H](C)CC)NC(=O)[C@H](C)NC1=O [R12F W19G] (HELM PEPTIDE1{G.G.D.G.S.I.A.E.Y.F.N.F.P.M.H.I.H.D.G.Q.I.M.D.S.G.Y.Y.G}$PEPTIDE1,PEPTIDE1,1:R1-8:R3$$$V2.0)
Experimental observation (enrichment observed in the screen) [1]: Dropout
B. cenocepacia AU0756 MIC (B. cenocepacia AU0756): >8 µM
Inhibits Growth (E. coli MC1061): Yes

CC[C@H](C)[C@@H]1NC(=O)[C@H](CO)NC(=O)CNC(=O)[C@H](CC(=O)O)NC(=O)CNC(=O)CNC(=O)CC[C@@H](C(=O)N[C@@H](Cc2ccc(O)cc2)C(=O)N[C@@H](Cc2ccccc2)C(=O)N[C@@H](CC(N)=O)C(=O)N[C@@H](Cc2ccccc2)C(=O)N2CCC[C@H]2C(=O)N[C@@H](CCSC)C(=O)N[C@@H](Cc2c[nH]cn2)C(=O)N[C@H](C(=O)N[C@@H](Cc2c[nH]cn2)C(=O)N[C@@H](CC(=O)O)C(=O)N[C@@H](Cc2c[nH]c3ccccc23)C(=O)N[C@@H](CCC(N)=O)C(=O)N[C@H](C(=O)N[C@@H](CCSC)C(=O)N[C@@H](CC(=O)O)C(=O)N[C@@H](CO)C(=O)NCC(=O)N[C@@H](Cc2ccc(O)cc2)C(=O)N[C@@H](Cc2ccc(O)cc2)C(=O)NCC(=O)O)[C@@H](C)CC)[C@@H](C)CC)NC(=O)[C@H](C)NC1=O [R12F] (HELM PEPTIDE1{G.G.D.G.S.I.A.E.Y.F.N.F.P.M.H.I.H.D.W.Q.I.M.D.S.G.Y.Y.G}$PEPTIDE1,PEPTIDE1,1:R1-8:R3$$$V2.0)
Experimental observation (enrichment observed in the screen) [1]: -5.3
B. cenocepacia AU0756 MIC (B. cenocepacia AU0756): 2 µM
Inhibits Growth (E. coli MC1061): Yes

CC[C@H](C)[C@H](NC(=O)[C@H](Cc1c[nH]cn1)NC(=O)[C@H](CCSC)NC(=O)[C@@H]1CCCN1C(=O)[C@@H](NC(=O)[C@H](CC(N)=O)NC(=O)[C@H](Cc1ccccc1)NC(=O)[C@H](Cc1ccc(O)cc1)NC(=O)[C@@H]1CCC(=O)NCC(=O)NCC(=O)N[C@@H](CC(=O)O)C(=O)NCC(=O)N[C@@H](CO)C(=O)N[C@@H]([C@@H](C)CC)C(=O)N[C@@H](C)C(=O)N1)C(C)C)C(=O)NCC(=O)N[C@@H](CC(=O)O)C(=O)N[C@@H](Cc1c[nH]c2ccccc12)C(=O)N[C@@H](CCC(N)=O)C(=O)N[C@H](C(=O)N[C@@H](CCSC)C(=O)N[C@@H](CC(=O)O)C(=O)N[C@@H](CO)C(=O)NCC(=O)N[C@@H](Cc1ccc(O)cc1)C(=O)N[C@@H](Cc1ccc(O)cc1)C(=O)NCC(=O)O)[C@@H](C)CC [R12V H17G] (HELM PEPTIDE1{G.G.D.G.S.I.A.E.Y.F.N.V.P.M.H.I.G.D.W.Q.I.M.D.S.G.Y.Y.G}$PEPTIDE1,PEPTIDE1,1:R1-8:R3$$$V2.0)
Experimental observation (enrichment observed in the screen) [1]: Dropout
B. cenocepacia AU0756 MIC (B. cenocepacia AU0756): 0.25 to 0.5 µM
Inhibits Growth (E. coli MC1061): Yes
